{"source": "the supplement of paper PMC10307832", "assay_in_all_cases": "relative viability (nuclei count vs DMSO), 5 days (fraction); higher = more cells survive", "key": {"Vismodegib + Palbociclib": {"compound": "CS(=O)(=O)c1ccc(C(=O)Nc2ccc(Cl)c(-c3ccccn3)c2)c(Cl)c1 [Vismodegib] + CC(=O)c1c(C)c2cnc(Nc3ccc(N4CCNCC4)cn3)nc2n(C2CCCC2)c1=O [Palbociclib] (partner 0.5 µM)", "method_in_brief": "(§1)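 A single step with final 0.05% Triton X-100, 1% formaldehyde and 1 ug/ml Hoechst fixed the cells and stained nuclei 5 days after treatment. Lung cancer cell lines in 1536-well plates had been treated by pin tool the day after seeding with one drug alone or a fixed anchor-drug dose plus five library-drug doses (not always all listed) in √10 steps, and nuclei were counted on 4× images. Relative viability is the ratio of nuclei in treated wells to nuclei in vehicle wells, taken as the median of duplicate plates.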"}, "VE-821 + Crizotinib": {"compound": "CS(=O)(=O)c1ccc(-c2cnc(N)c(C(=O)Nc3ccccc3)n2)cc1 [VE-821] + C[C@@H](Oc1cc(-c2cnn(C3CCNCC3)c2)cnc1N)c1c(Cl)ccc(F)c1Cl [Crizotinib] (partner 1 µM)", "method_in_brief": "as §1"}, "Ruxolitinib + Olaparib": {"compound": "N#CC[C@H](C1CCCC1)n1cc(-c2ncnc3[nH]ccc23)cn1 [Ruxolitinib] + O=C(c1cc(Cc2n[nH]c(=O)c3ccccc23)ccc1F)N1CCN(C(=O)C2CC2)CC1 [Olaparib] (partner 8 µM)", "method_in_brief": "as §1"}, "Ruxolitinib + Phenformin": {"compound": "N#CC[C@H](C1CCCC1)n1cc(-c2ncnc3[nH]ccc23)cn1 [Ruxolitinib] + N=C(N)NC(=N)NCCc1ccccc1 [Phenformin] (partner 250 µM)", "method_in_brief": "as §1"}}}
{"cell line": "UMC-11", "values": [{"measurement": "relative viability", "setting": "Vismodegib + Palbociclib; first compound 0.08 µM", "value": 0.343}, {"measurement": "relative viability", "setting": "Vismodegib + Palbociclib; first compound 0.253 µM", "value": 0.346}, {"measurement": "relative viability", "setting": "Vismodegib + Palbociclib; first compound 0.8 µM", "value": 0.298}, {"measurement": "relative viability", "setting": "Vismodegib + Palbociclib; first compound 2.53 µM", "value": 0.351}, {"measurement": "relative viability", "setting": "Vismodegib + Palbociclib; first compound 8 µM", "value": 0.344}, {"measurement": "relative viability", "setting": "VE-821 + Crizotinib; first compound 0.08 µM", "value": 0.85}, {"measurement": "relative viability", "setting": "VE-821 + Crizotinib; first compound 0.253 µM", "value": 0.681}, {"measurement": "relative viability", "setting": "VE-821 + Crizotinib; first compound 0.8 µM", "value": 0.534}, {"measurement": "relative viability", "setting": "VE-821 + Crizotinib; first compound 2.53 µM", "value": 0.626}, {"measurement": "relative viability", "setting": "VE-821 + Crizotinib; first compound 8 µM", "value": 0.238}, {"measurement": "relative viability", "setting": "Ruxolitinib + Olaparib; first compound 0.08 µM", "value": 0.37}, {"measurement": "relative viability", "setting": "Ruxolitinib + Olaparib; first compound 0.253 µM", "value": 0.894}, {"measurement": "relative viability", "setting": "Ruxolitinib + Olaparib; first compound 0.8 µM", "value": 1.03}, {"measurement": "relative viability", "setting": "Ruxolitinib + Olaparib; first compound 2.53 µM", "value": 0.366}, {"measurement": "relative viability", "setting": "Ruxolitinib + Olaparib; first compound 8 µM", "value": 0.315}, {"measurement": "relative viability", "setting": "Ruxolitinib + Phenformin; first compound 0.08 µM", "value": 0.344}, {"measurement": "relative viability", "setting": "Ruxolitinib + Phenformin; first compound 0.253 µM", "value": 0.326}, {"measurement": "relative viability", "setting": "Ruxolitinib + Phenformin; first compound 0.8 µM", "value": 0.356}, {"measurement": "relative viability", "setting": "Ruxolitinib + Phenformin; first compound 2.53 µM", "value": 0.279}, {"measurement": "relative viability", "setting": "Ruxolitinib + Phenformin; first compound 8 µM", "value": 0.257}]}
